How the values were obtained:
[1] = molecular target: T1, SIRT1 (Homo sapiens, UniProt Q96EB6); experiment: TAMRA based mass spectrometry assay of SIRT1 activity; format: biochemical; conditions: TAMRA assay; for TAMRA EC1.5 (μM): concentration giving 150% activation of SIRT1; for Emax: percent maximum fold activation, read-out: TAMRA % Fold Act
T1 sequence (Q96EB6 1-747): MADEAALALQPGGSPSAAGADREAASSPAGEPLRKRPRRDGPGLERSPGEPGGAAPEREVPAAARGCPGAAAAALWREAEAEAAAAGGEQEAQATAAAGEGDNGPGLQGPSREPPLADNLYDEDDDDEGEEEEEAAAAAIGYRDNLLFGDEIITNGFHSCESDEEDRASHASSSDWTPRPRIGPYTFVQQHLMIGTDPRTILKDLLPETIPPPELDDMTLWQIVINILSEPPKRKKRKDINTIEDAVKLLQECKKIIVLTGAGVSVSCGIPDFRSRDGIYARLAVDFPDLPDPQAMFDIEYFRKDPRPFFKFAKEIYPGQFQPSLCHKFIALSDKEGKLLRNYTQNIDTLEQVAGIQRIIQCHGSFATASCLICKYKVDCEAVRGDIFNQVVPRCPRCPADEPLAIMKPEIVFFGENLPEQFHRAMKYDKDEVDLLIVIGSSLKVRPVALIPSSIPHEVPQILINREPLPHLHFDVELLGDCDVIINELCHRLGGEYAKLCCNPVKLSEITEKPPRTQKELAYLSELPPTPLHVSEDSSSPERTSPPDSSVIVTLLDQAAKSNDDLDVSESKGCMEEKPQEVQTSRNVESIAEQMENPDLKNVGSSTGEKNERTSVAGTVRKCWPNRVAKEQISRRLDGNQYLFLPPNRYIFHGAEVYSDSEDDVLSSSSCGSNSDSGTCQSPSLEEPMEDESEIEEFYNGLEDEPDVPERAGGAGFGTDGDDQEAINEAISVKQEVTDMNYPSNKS
Method in brief: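 Recombinant N-terminal His-tagged human SIRT1 (10 nM, E. coli) incubated 25 min at 25 °C with 0.5 μM 5TMR-labelled p53-derived acetyl-peptide and 120 μM βNAD+ in Tris-acetate pH 8 buffer with DTT and 0.05% BSA, compound at varying concentrations. Stopped with formic acid; deacetylated peptide or OAADPR measured by mass spectrometry relative to DMSO controls.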

[2] = molecular target: T1, SIRT1; experiment: Trp mass spectrometry assay of SIRT1 activity; format: biochemical; conditions: Trp assay; for Trp EC1.5 (μM): concentration giving 150% activation of SIRT1; for Emax: percent maximum fold activation, read-out: Trp % Fold Act
Method in brief: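 His-tagged SIRT1 expressed in E. coli BL21(DE3), 10 nM, incubated 25 min at 25° C. with 0.5 μM Ac-RHKK(Ac)W-NH2 peptide and 120 μM βNAD+ in 50 mM HEPES pH 7.5, […], 1 mM DTT, 0.05% BSA; formic acid stop. OAADPR or deacetylated peptide measured by mass spectrometry; EC1.5 and percent maximum activation versus DMSO control.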

| SMILES | TAMRA EC1.5 (μM) [1] | Emax [1] [%] | Trp EC1.5 (μM) [2] | Emax [2] [%] |
| --- | --- | --- | --- | --- |
| CCOc1ccc(NC(=O)c2cnn3ccc(-c4ccccc4OC(F)(F)F)nc23)nn1 [Compound 636] | A (EC1.5<1 μM) | ≥ 350 | B (EC1.5 1-25 μM) | < 350 |
| Cc1nccc(NC(=O)c2c(C)nn3ccc(-c4ccccc4C(F)(F)F)nc23)c1C [Compound 639] | A (EC1.5<1 μM) | ≥ 350 | A (EC1.5<1 μM) | ≥ 350 |
| Cc1ccncc1NC(=O)c1cnn2ccc(-c3ccccc3C(F)(F)F)nc12 [Compound 640] | B (EC1.5 1-25 μM) | < 350 | B (EC1.5 1-25 μM) | < 350 |
| O=C(Nc1cncc(F)c1)c1cnn2ccc(-c3ccccc3C(F)(F)F)nc12 [Compound 642] | A (EC1.5<1 μM) | ≥ 350 | B (EC1.5 1-25 μM) | ≥ 350 |
| O=C(Nc1cnc2ccc(-c3ccccc3C(F)(F)F)nn12)c1cncc(OC[C@@H](O)CO)n1 [Compound 645] | A (EC1.5<1 μM) | ≥ 350 | A (EC1.5<1 μM) | ≥ 350 |
| Cc1cc(-c2ccccc2C(F)(F)F)nn2c(C(=O)Nc3nccc(N4CCCC4)n3)cnc12 [Compound 647] | A (EC1.5<1 μM) | ≥ 350 | A (EC1.5<1 μM) | ≥ 350 |
| Cc1csc(NC(=O)c2c(C)nn3ccc(-c4ccccc4C(F)(F)F)nc23)n1 [Compound 650] | A (EC1.5<1 μM) | ≥ 350 | A (EC1.5<1 μM) | ≥ 350 |
| Cc1cccnc1NC(=O)c1cnn2ccc(-c3ccccc3C(F)(F)F)nc12 [Compound 653] | C (EC1.5>25 μM) | < 350 | B (EC1.5 1-25 μM) | ≥ 350 |
| Cc1cncc(NC(=O)c2cnn3ccc(-c4ccccc4C(F)(F)F)nc23)n1 [Compound 654] | A (EC1.5<1 μM) | ≥ 350 | B (EC1.5 1-25 μM) | < 350 |
| O=C(Nc1ncc(F)cc1F)c1cnn2ccc(-c3ccccc3C(F)(F)F)nc12 [Compound 656] | B (EC1.5 1-25 μM) | ≥ 350 | B (EC1.5 1-25 μM) | < 350 |
| Cc1cc(NC(=O)c2cnn3ccc(-c4ccccc4OC(F)(F)F)nc23)nc(C)n1 [Compound 659] | A (EC1.5<1 μM) | ≥ 350 | B (EC1.5 1-25 μM) | < 350 |
| COCCOc1cc(NC(=O)c2cnc3ccc(-c4ccccc4C(F)(F)F)nn23)ncn1 [Compound 663] | A (EC1.5<1 μM) | ≥ 350 | B (EC1.5 1-25 μM) | < 350 |
| COc1ccc(NC(=O)c2c(C)nc3ccc(-c4ccccc4C(F)(F)F)nn23)nn1 [Compound 665] | A (EC1.5<1 μM) | ≥ 350 | B (EC1.5 1-25 μM) | < 350 |
| COc1ccnc(NC(=O)c2c(C)nc3ccc(-c4ccccc4C(F)(F)F)nn23)c1 [Compound 671] | A (EC1.5<1 μM) | ≥ 350 | A (EC1.5<1 μM) | ≥ 350 |
| Cc1nc2ccc(-c3ccccc3C(F)(F)F)nn2c1C(=O)Nc1ccnn1C(C)(C)C [Compound 672] | B (EC1.5 1-25 μM) | < 350 | B (EC1.5 1-25 μM) | < 350 |
| CCn1nccc1NC(=O)c1c(C)nc2ccc(-c3ccccc3C(F)(F)F)nn12 [Compound 674] | B (EC1.5 1-25 μM) | < 350 | B (EC1.5 1-25 μM) | ≥ 350 |
| Cc1nc2ccc(-c3ccccc3C(F)(F)F)nn2c1C(=O)Nc1ccnn1C(C)C [Compound 680] | B (EC1.5 1-25 μM) | < 350 | B (EC1.5 1-25 μM) | ≥ 350 |
| Cc1ccnnc1NC(=O)c1cnc2c(C)cc(-c3ccccc3C(F)(F)F)nn12 [Compound 681] | C (EC1.5>25 μM) | < 350 | B (EC1.5 1-25 μM) | ≥ 350 |
| Cc1ccnc(NC(=O)c2c(C)nn3ccc(-c4ccccc4C(F)(F)F)nc23)c1 [Compound 683] | A (EC1.5<1 μM) | ≥ 350 | A (EC1.5<1 μM) | ≥ 350 |
| Cc1nn2ccc(-c3ccccc3C(F)(F)F)nc2c1C(=O)Nc1ccc(F)cn1 [Compound 686] | A (EC1.5<1 μM) | ≥ 350 | A (EC1.5<1 μM) | < 350 |
| Cc1cc(C)nc(NC(=O)c2cnn3ccc(-c4ccccc4OC(F)(F)F)nc23)n1 [Compound 688] | B (EC1.5 1-25 μM) | ≥ 350 | B (EC1.5 1-25 μM) | < 350 |
| Cc1cccc(-c2ccc3nc(C)c(C(=O)Nc4ccc(C)nn4)n3n2)c1 [Compound 692] | A (EC1.5<1 μM) | < 350 | A (EC1.5<1 μM) | < 350 |
| Cc1ccc(NC(=O)c2c(C)nc3ccc(-c4ccccc4C)nn23)nn1 [Compound 694] | B (EC1.5 1-25 μM) | ≥ 350 | B (EC1.5 1-25 μM) | < 350 |
| Cc1nn2ccc(-c3ccccc3C(F)(F)F)nc2c1C(=O)Nc1cccnn1 [Compound 695] | A (EC1.5<1 μM) | ≥ 350 | A (EC1.5<1 μM) | ≥ 350 |
| Cc1ccc(NC(=O)c2c(C)nn3ccc(-c4ccccc4C(F)(F)F)nc23)c(C)n1 [Compound 698] | A (EC1.5<1 μM) | ≥ 350 | A (EC1.5<1 μM) | ≥ 350 |
| Cc1cccnc1NC(=O)c1cnn2ccc(-c3ccccc3OC(F)(F)F)nc12 [Compound 701] | B (EC1.5 1-25 μM) | < 350 | A (EC1.5<1 μM) | ≥ 350 |
| O=C(Nc1cnc2ccc(-c3ccccc3C(F)(F)F)nn12)c1cnc(O)cn1 [Compound 704] | A (EC1.5<1 μM) | ≥ 350 | B (EC1.5 1-25 μM) | < 350 |
| Cc1nc2ccc(-c3ccccc3F)nn2c1C(=O)Nc1cccnn1 [Compound 706] |  | < 350 |  | < 350 |
| CCOc1cc(NC(=O)c2c(C)nn3ccc(-c4ccccc4C(F)(F)F)nc23)ccn1 [Compound 707] | A (EC1.5<1 μM) | ≥ 350 | A (EC1.5<1 μM) | ≥ 350 |

From patent publication US9957271B2, “Substituted bicyclic aza-heterocycles and analogues as sirtuin modulators” (GlaxoSmithKline, LLC, priority 2012, dated 2018)
